Measurements published in ChEMBL document CHEMBL1201862, “PubChem BioAssay data set” (2004).
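Growth conditions: 96-well plates. Treatment: test compound, 48 hours, 5 concentrations. Analysis: linear interpolation between bracketing concentrations; unreached endpoints set to highest concentration. GI50 is the concentration that inhibits growth by half.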 Active and inactive are the calls of the source. Cut-off read from the data, not from the text of the source: active = GI50 up to about 1.1 µM and inactive = higher.

Experiments:
Test in all cases: NCI anticancer screen, dose series, 48 h
HT-29 = test system: HT-29
LOX IMVI = test system: LOX IMVI
SNB-19 = test system: SNB-19
TK-10 = test system: TK-10
SW-620 = test system: SW-620
RXF 393 = test system: RXF 393
CCRF-CEM = test system: CCRF-CEM
HOP-62 = test system: HOP-62
UO-31 = test system: UO-31
OVCAR-8 = test system: OVCAR-8
MOLT-4 = test system: MOLT-4
NCI-H23 = test system: NCI-H23
A498 = test system: A498
U-251 = test system: U-251
T47D = test system: T47D
ACHN = test system: ACHN
EKVX = test system: EKVX
UACC-257 = test system: UACC-257
MDA-MB-435 = test system: MDA-MB-435
NCI-H460 = test system: NCI-H460

Compound | GI50 (HT-29) | GI50 (LOX IMVI) | GI50 (SNB-19) | GI50 (TK-10) | GI50 (SW-620) | GI50 (RXF 393) | GI50 (CCRF-CEM) | GI50 (HOP-62) | GI50 (UO-31) | GI50 (OVCAR-8) | GI50 (MOLT-4) | GI50 (NCI-H23) | GI50 (A498) | GI50 (U-251) | GI50 (T47D) | GI50 (ACHN) | GI50 (EKVX) | GI50 (UACC-257) | GI50 (MDA-MB-435) | GI50 (NCI-H460)
O=[N+]([O-])/C(C(Cl)=C(Cl)Cl)=C(/Br)SCc1ccccc1 | 2.11 µM (inactive) | 1.56 µM (inactive) | 10.4 µM (inactive) | 3.08 µM (inactive) | 1.63 µM (inactive) | 1.79 µM (inactive) | 0.277 µM (active) | 15.5 µM (inactive) | 2.45 µM (inactive) | 2.61 µM (inactive) | 0.26 µM (active) | 3.22 µM (inactive) | 7.01 µM (inactive) | 4.48 µM (inactive) | 2.88 µM (inactive) | 2.64 µM (inactive) | 5.46 µM (inactive) | 3.18 µM (inactive) | 1.47 µM (inactive) | 7.13 µM (inactive)
Nc1nc2[nH]cnc2c(=S)[nH]1 [THIOGUANINE] | 1.13 µM (inactive) | 0.207 µM (active) | 76.9 µM (inactive) | 0.962 µM (active) | 1.45 µM (inactive) | 0.865 µM (active) | 0.169 µM (active) | 0.78 µM (active) | 1.56 µM (inactive) | 0.687 µM (active) | 0.269 µM (active) | 1.1 µM (active) | 6.68 µM (inactive) | 5.12 µM (inactive) | 2.07 µM (inactive) | 1.86 µM (inactive) | 2.03 µM (inactive) | 2.1 µM (inactive) | 0.851 µM (active) | 0.624 µM (active)
CC(C)(C)c1cc(/C=C(\C#N)C2=NCCO2)cc(C(C)(C)C)c1O | 3.2 µM (inactive) | 5.96 µM (inactive) | 4.43 µM (inactive) | 3.48 µM (inactive) | 4.06 µM (inactive) | 3.26 µM (inactive) | 2.4 µM (inactive) | 4.3 µM (inactive) | 2.73 µM (inactive) | 4.67 µM (inactive) | 3.37 µM (inactive) | 3.44 µM (inactive) | 3.84 µM (inactive) | 3.31 µM (inactive) | 2.64 µM (inactive) | 3.56 µM (inactive) | 4.99 µM (inactive) | 2.64 µM (inactive) | 4.47 µM (inactive) | 2.51 µM (inactive)
Nc1nncs1 | 211 µM (inactive) | 1450 µM (inactive) | 3730 µM (inactive) | > 5000 µM (inactive) | 1260 µM (inactive) | 2930 µM (inactive) | 1010 µM (inactive) | 724 µM (inactive) | 3530 µM (inactive) | 1910 µM (inactive) | 695 µM (inactive) | 1640 µM (inactive) | 867 µM (inactive) | 3100 µM (inactive) | > 3040 µM (inactive) | 1520 µM (inactive) | 1320 µM (inactive) | 705 µM (inactive) | 1630 µM (inactive) | 692 µM (inactive)
Cc1cc(N(CCOS(C)(=O)=O)CCOS(C)(=O)=O)ccc1/C=N/c1ccc(-c2csc(-c3ccc(Br)cc3)n2)cc1 | 7.06 µM (inactive) | 9.18 µM (inactive) | 19.4 µM (inactive) | 7.57 µM (inactive) | 15.6 µM (inactive) | 1.78 µM (inactive) | 1.12 µM (inactive) | 4.58 µM (inactive) | 10.2 µM (inactive) | 12.9 µM (inactive) | 2.38 µM (inactive) | 5.07 µM (inactive) | 2.11 µM (inactive) | 15.2 µM (inactive) | 10.9 µM (inactive) | 0.518 µM (active) | 6.24 µM (inactive) | 18.9 µM (inactive) | 17.2 µM (inactive) | 0.0483 µM (active)
CC1(C)CN(c2ccccc2)C(=O)C1OC(=O)[C@@]1(C)C[C@@H]2C=C[C@H]1C2 (stereo not given in full) | 12.5 µM (inactive) | 18.9 µM (inactive) | 28.8 µM (inactive) | 30.7 µM (inactive) | 33.3 µM (inactive) | 17.9 µM (inactive) | 23.3 µM (inactive) | 22.4 µM (inactive) | 13.7 µM (inactive) | 32.2 µM (inactive) | 38.2 µM (inactive) | 25.2 µM (inactive) | 23.8 µM (inactive) | 19.2 µM (inactive) | 32.7 µM (inactive) | 34.5 µM (inactive) | 28.4 µM (inactive) | 24.5 µM (inactive) | 20.2 µM (inactive) | 23 µM (inactive)
CC(C)=CC1C(C(=O)OCc2cc3c(cc2Cl)OCO3)C1(C)C (stereo not given) | 23.1 µM (inactive) | 16.6 µM (inactive) | > 100 µM (inactive) | 63.2 µM (inactive) | 55.7 µM (inactive) | 44.1 µM (inactive) | 32.6 µM (inactive) | 22.7 µM (inactive) | 46.1 µM (inactive) | 44.3 µM (inactive) | 13.1 µM (inactive) | 25.8 µM (inactive) | 26.9 µM (inactive) | 12.6 µM (inactive) | 17.3 µM (inactive) | 28.7 µM (inactive) | 13.5 µM (inactive) | 12.6 µM (inactive) | 33.7 µM (inactive) | 24.4 µM (inactive)
